Results published in patent US7125990B2, “Imidazolyl derivatives as corticotropin releasing factor inhibitors” (Bristol-Myers Squibb COmpany, priority 2001, dated 2006).
pKi: −log10 of the molar value.

Molecular target: T1, CRF1 receptors (Homo sapiens, UniProt P34998)
T1 construct: endogenous in cells; host or cells: IMR-32 cells, transformed with 2.5 µM 5'-bromo-2'-deoxyuridine for 10 days; membrane preparation
T1 sequence (P34998 24-415): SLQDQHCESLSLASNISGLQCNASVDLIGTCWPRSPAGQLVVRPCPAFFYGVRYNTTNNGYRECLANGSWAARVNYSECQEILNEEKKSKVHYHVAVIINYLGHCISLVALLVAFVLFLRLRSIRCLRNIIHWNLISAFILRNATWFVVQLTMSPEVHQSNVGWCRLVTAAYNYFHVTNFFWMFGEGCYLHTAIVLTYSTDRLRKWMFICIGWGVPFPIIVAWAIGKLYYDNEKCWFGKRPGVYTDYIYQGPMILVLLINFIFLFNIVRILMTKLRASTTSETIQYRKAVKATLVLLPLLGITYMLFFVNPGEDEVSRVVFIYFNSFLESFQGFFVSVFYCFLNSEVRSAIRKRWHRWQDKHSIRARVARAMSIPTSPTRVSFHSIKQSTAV
Assay: CRF1 receptor radioligand binding assay ([125I]-oCRF competition, IMR-32 cell membranes)
Details: IMR-32 cell membranes, [125I]-oCRF 100 pM; read-out: Ki (CRF-1R)
Procedure, shortened: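 Buffer: Tris pH 7.2 with MgCl2, BSA, Triton X-100, aprotinin, leupeptin; reaction stopped with ice-cold wash and filtered. Nonspecific binding set with 10 μM oCRF.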

| Structure (SMILES) | pKi |
| --- | --- |
| C=CCN(CC=C)Cc1c(C(F)(F)F)nc2n1CCCN2c1c(C)cc(C)cc1Cl [Example 103, Diallyl-[8-(2-chloro-4,6-dimethyl-phenyl)-2-trifluoromethyl-5,6,7,8-tetrahydro-imidazo[1,2-a]pyrimidin-3-ylmethyl]-amine] | > 7.00 |
| CCCCN(Cc1ccccc1)Cc1c(C(F)(F)F)nc2n1CCCN2c1c(C)cc(C)cc1Cl [Example 105, Benzyl-butyl-[8-(2-chloro-4,6-dimethyl-phenyl)-2-trifluoromethyl-5,6,7,8-tetrahydro-imidazo[1,2-a]pyrimidin-3-ylmethyl]-amine] | > 6.00 |
| CCCCN(CC)Cc1c(C(F)(F)F)nc2n1CCCN2c1c(C)cc(C)cc1Cl [Example 108, Butyl-[8-(2-chloro-4,6-dimethyl-phenyl)-2-trifluoromethyl-5,6,7,8-tetrahydro-imidazo[1,2-a]pyrimidin-3-ylmethyl]-ethyl-amine] | > 6.00 |
| CCCN(CCC)Cc1c(C(F)(F)F)nc2n1CCCN2c1c(C)cc(C)cc1Cl [Example 109, [8-(2-Chloro-4,6-dimethyl-phenyl)-2-trifluoromethyl-5,6,7,8-tetrahydro-imidazo[1,2-a]pyrimidin-3-ylmethyl]-dipropyl-amine] | > 6.00 |
| CCCN(Cc1c(C(F)(F)F)nc2n1CCCN2c1c(C)cc(C)cc1Cl)CC(F)(F)F [Example 114, [8-(2-Chloro-4,6-dimethyl-phenyl)-2-trifluoromethyl-5,6,7,8-tetrahydro-imidazo[1,2-a]pyrimidin-3-ylmethyl]-propyl-(2,2,2-trifluoro-ethyl)-amine] | > 6.00 |
| CCCN(Cc1c(C(F)(F)F)nc2n1CCCN2c1c(C)cc(C)cc1Cl)CC(F)(F)C(F)(F)F [Example 117, [8-(2-Chloro-4,6-dimethyl-phenyl)-2-trifluoromethyl-5,6,7,8-tetrahydro-imidazo[1,2-a]pyrimidin-3-ylmethyl]-(2,2,3,3,3-pentafluoro-propyl)-propyl-amine] | > 6.00 |
| Cc1cc(C)c(N2CCCn3c2nc(C(F)(F)F)c3CN(CCc2ccccc2)CCC(F)(F)F)c(Cl)c1 [Example 118, [8-(2-Chloro-4,6-dimethyl-phenyl)-2-trifluoromethyl-5,6,7,8-tetrahydro-imidazo[1,2-a]pyrimidin-3-ylmethyl]-phenethyl-(3,3,3-trifluoro-propyl)-amine] | > 6.00 |
| CCN(CCc1ccccc1)Cc1c(C(F)(F)F)nc2n1CCCN2c1c(C)cc(C)cc1Cl [Example 120, [8-(2-Chloro-4,6-dimethyl-phenyl)-2-trifluoromethyl-5,6,7,8-tetrahydro-imidazo[1,2-a]pyrimidin-3-ylmethyl]-ethyl-phenethyl-amine] | > 6.00 |
| CCCN(CCc1ccccc1)Cc1c(C(F)(F)F)nc2n1CCCN2c1c(C)cc(C)cc1Cl [Example 121, [8-(2-Chloro-4,6-dimethyl-phenyl)-2-trifluoromethyl-5,6,7,8-tetrahydro-imidazo[1,2-a]pyrimidin-3-ylmethyl]-phenethyl-propyl-amine] | > 6.00 |
| CCN(CCC1CC1)Cc1c(C(F)(F)F)nc2n1CCCN2c1c(C)cc(C)cc1Cl [Example 123, [8-(2-Chloro-4,6-dimethyl-phenyl)-2-trifluoromethyl-5,6,7,8-tetrahydro-imidazo[1,2-a]pyrimidin-3-ylmethyl]-(2-cyclopropyl-ethyl)-ethyl-amine] | > 6.00 |
| Cc1cc(C)c(N2CCCn3c2nc(C(F)(F)F)c3CN(CCC(F)(F)F)Cc2ccc(F)cc2)c(Cl)c1 [Example 127, [8-(2-Chloro-4,6-dimethyl-phenyl)-2-trifluoromethyl-5,6,7,8-tetrahydro-imidazo[1,2-a]pyrimidin-3-ylmethyl]-(4-fluoro-benzyl)-(3,3,3-trifluoro-propyl)-amine] | > 6.00 |
| Cc1cc(C)c(N2CCCn3c2nc(C(F)(F)F)c3CN(CCC(F)(F)F)Cc2ccc(Cl)cc2)c(Cl)c1 [Example 128, (4-Chloro-benzyl)-[8-(2-chloro-4,6-dimethyl-phenyl)-2-trifluoromethyl-5,6,7,8-tetrahydro-imidazo[1,2-a]pyrimidin-3-ylmethyl]-(3,3,3-trifluoro-propyl)-amine] | > 6.00 |
| CCCN(Cc1ccc(Cl)cc1)Cc1c(C(F)(F)F)nc2n1CCCN2c1c(C)cc(C)cc1Cl [Example 129, (4-Chloro-benzyl)-[8-(2-chloro-4,6-dimethyl-phenyl)-2-trifluoromethyl-5,6,7,8-tetrahydro-imidazo[1,2-a]pyrimidin-3-ylmethyl]-propyl-amine] | > 6.00 |

Next, values leading:

| pKi | Structure (SMILES) |
| --- | --- |
| > 6.00 | CCCCN(C)Cc1c(C(F)(F)F)nc2n1CCCN2c1c(C)cc(C)cc1Cl [Example 104, Butyl-[8-(2-chloro-4,6-dimethyl-phenyl)-2-trifluoromethyl-5,6,7,8-tetrahydro-imidazo[1,2-a]pyrimidin-3-ylmethyl]-methyl-amine] |
| > 6.00 | C=C(C)CN(CC)Cc1c(C(F)(F)F)nc2n1CCCN2c1c(C)cc(C)cc1Cl [Example 106, [8-(2-Chloro-4,6-dimethyl-phenyl)-2-trifluoromethyl-5,6,7,8-tetrahydro-imidazo[1,2-a]pyrimidin-3-ylmethyl]-ethyl-(2-methyl-allyl)-amine] |
| > 6.00 | Cc1cc(C)c(N2CCCn3c2nc(C(F)(F)F)c3CN(C)Cc2ccccc2)c(Cl)c1 [Example 107, Benzyl-[8-(2-chloro-4,6-dimethyl-phenyl)-2-trifluoromethyl-5,6,7,8-tetrahydro-imidazo[1,2-a]pyrimidin-3-ylmethyl]-methyl-amine] |
| > 6.00 | CCCN(CCOC)Cc1c(C(F)(F)F)nc2n1CCCN2c1c(C)cc(C)cc1Cl [Example 110, [8-(2-Chloro-4,6-dimethyl-phenyl)-2-trifluoromethyl-5,6,7,8-tetrahydro-imidazo[1,2-a]pyrimidin-3-ylmethyl]-(2-methoxy-ethyl)-propyl-amine] |
| > 6.00 | CCCN(Cc1c(C(F)(F)F)nc2n1CCCN2c1c(C)cc(C)cc1Cl)CC1CCC1 [Example 111, [8-(2-Chloro-4,6-dimethyl-phenyl)-2-trifluoromethyl-5,6,7,8-tetrahydro-imidazo[1,2-a]pyrimidin-3-ylmethyl]-cyclobutylmethyl-propyl-amine] |
| > 7.00 | Cc1cc(C)c(N2CCCn3c2nc(C(F)(F)F)c3CN(CC2CCC2)CC(F)(F)F)c(Cl)c1 [Example 112, [8-(2-Chloro-4,6-dimethyl-phenyl)-2-trifluoromethyl-5,6,7,8-tetrahydro-imidazo[1,2-a]pyrimidin-3-ylmethyl]-cyclobutylmethyl-(2,2,2-trifluoro-ethyl)-amine] |
| > 7.00 | CCN(Cc1c(C(F)(F)F)nc2n1CCCN2c1c(C)cc(C)cc1Cl)CC1CC1 [Example 113, [8-(2-Chloro-4,6-dimethyl-phenyl)-2-trifluoromethyl-5,6,7,8-tetrahydro-imidazo[1,2-a]pyrimidin-3-ylmethyl]-cyclopropylmethyl-ethyl-amine] |
| > 7.00 | Cc1cc(C)c(N2CCCn3c2nc(C(F)(F)F)c3CN(CC2CC2)CC(F)(F)C(F)(F)F)c(Cl)c1 [Example 115, [8-(2-Chloro-4,6-dimethyl-phenyl)-2-trifluoromethyl-5,6,7,8-tetrahydro-imidazo[1,2-a]pyrimidin-3-ylmethyl]-cyclopropylmethyl-(2,2,3,3,3-pentafluoro-propyl)-amine] |
| > 6.00 | CCCN(CCC(F)(F)F)Cc1c(C(F)(F)F)nc2n1CCCN2c1c(C)cc(C)cc1Cl [Example 116, [8-(2-Chloro-4,6-dimethyl-phenyl)-2-trifluoromethyl-5,6,7,8-tetrahydro-imidazo[1,2-a]pyrimidin-3-ylmethyl]-propyl-(3,3,3-trifluoro-propyl)-amine] |
| > 6.00 | Cc1cc(C)c(N2CCCn3c2nc(C(F)(F)F)c3CN(CCc2ccccc2)CC(F)(F)F)c(Cl)c1 [Example 119, [8-(2-Chloro-4,6-dimethyl-phenyl)-2-trifluoromethyl-5,6,7,8-tetrahydro-imidazo[1,2-a]pyrimidin-3-ylmethyl]-phenethyl-(2,2,2-trifluoro-ethyl)-amine] |
| > 6.00 | Cc1cc(C)c(N2CCCn3c2nc(C(F)(F)F)c3CN(CCC2CC2)CCC(F)(F)F)c(Cl)c1 [Example 122, [8-(2-Chloro-4,6-dimethyl-phenyl)-2-trifluoromethyl-5,6,7,8-tetrahydro-imidazo[1,2-a]pyrimidin-3-ylmethyl]-(2-cyclopropyl-ethyl)-(3,3,3-trifluoro-propyl)-amine] |
| > 6.00 | CCCN(CCC1CC1)Cc1c(C(F)(F)F)nc2n1CCCN2c1c(C)cc(C)cc1Cl [Example 124, [8-(2-Chloro-4,6-dimethyl-phenyl)-2-trifluoromethyl-5,6,7,8-tetrahydro-imidazo[1,2-a]pyrimidin-3-ylmethyl]-(2-cyclopropyl-ethyl)-propyl-amine] |
| > 6.00 | Cc1cc(C)c(N2CCCn3c2nc(C(F)(F)F)c3CN(CCC(F)(F)F)Cc2ccccc2)c(Cl)c1 [Example 125, Benzyl-[8-(2-chloro-4,6-dimethyl-phenyl)-2-trifluoromethyl-5,6,7,8-tetrahydro-imidazo[1,2-a]pyrimidin-3-ylmethyl]-(3,3,3-trifluoro-propyl)-amine] |
| > 6.00 | Cc1cc(C)c(N2CCCn3c2nc(C(F)(F)F)c3CN(CCC2CC2)CC(F)(F)F)c(Cl)c1 [Example 126, [8-(2-Chloro-4,6-dimethyl-phenyl)-2-trifluoromethyl-5,6,7,8-tetrahydro-imidazo[1,2-a]pyrimidin-3-ylmethyl]-(2-cyclopropyl-ethyl)-(2,2,2-trifluoro-ethyl)-amine] |
